Measured values taken from patent US20240368209A1, “GEMCITABINE ANTICANCER DERIVATIVE AND ANTICANCER PHARMACEUTICAL USE” (ASCENTAWITS PHARMACEUTICALS, LTD., priority 2021, published 2024).
Like-named read-outs stand apart in the source and are kept apart here.

Tests used:
H460 cancer cells = assay: Inhibition of H460 cancer cells in the presence or absence of AKR1C3 inhibitor AST-3021 (section 2.1); format: cell-based, human; settings: for IC50: Homo sapiens
Protocol: The experimental scheme was as follows: • 1) H460 cell suspension was added to a 96-well plate with 100 μL per well at a cell density of 2000/well. • 2) Cells were incubated in an incubator of 37° C., 5% CO2 overnight. • 3) Compound treatment
Combined administration: 24 hours after cell plating, 98 μL of growth medium per well was added. 1 μL of AST-3021 was added to each well (final concentration 3 μM), and the plate was shaken gently to ensure even mixing, and then placed into an incubator; after 2 hours, 1 μL of the test compound at different concentrations was added, and the plate was shaken gently to ensure even mixing, and then placed into an incubator of 37° C., 5% CO2.
Administration of the drug alone: 24 hours after cell plating, 99 μL of growth medium per well was added.
In order to further verify that the compound was activated specifically by human AKR1C3 (aldosterone reductase family 1 member C3), the compound was added following the pretreatment of cells with the specific AKR1C3 enzyme inhibitor AST-3021 (3 μM), and the effect of the presence of AST-3021 on the proliferation of H460 cancer cells was tested
IC50 data of inhibitory effect of the compounds gemcitabine and H11 on H460 cancer cells in the presence or absence of the AKR1C3 inhibitor AST-3021 is shown in Table 2 and Table 3.

[1] = tested on: HuPrime pancreatic cancer xenograft model PA1222; assay: In vivo pharmacodynamic experiment in HuPrime pancreatic cancer PA1222 PDX model; settings: for Tumor volume (mm^3) (x ± S): Group 2, 80 mg/kg i.p.
[2] = intraperitoneal injection, once every 3 days, for four consecutive doses; literature; cited from earlier work
[3] = tested on: H460 cell line with high expression of AKR1C3 enzyme; settings: cited from earlier work
[4] = Plasma stability in human plasma; format: in vitro ADME
Protocol: (§1) The final concentration of organic solvents was 0.5%. The test was conducted in duplicate. • C.
(§2) Samples were analyzed with LC-MS/MS. All calculations were conducted using Microsoft Excel.

[5] = Plasma stability in monkey plasma; format: in vitro ADME
Protocol: as §1, §2

[6] = Plasma stability in mouse plasma; format: in vitro ADME
Protocol: as §1, §2

[7] = Plasma stability in dog plasma; format: in vitro ADME
Protocol: as §1, §2

[8] = tested on: H460 non-small cell lung cancer human tumor cell line; assay: In vitro human tumor cell line cytotoxicity (proliferation) assay on H460, CTG, with or without AST-3021; format: cell-based; settings: for IC50: Homo sapiens
Protocol: In vitro human tumor cell line cytotoxicity assay was used.
In vitro proliferation data on the H460 non-small cell lung cancer human tumor cell line (cell line which highly expresses AKR1C3) is reported below in the compound table.
IC50 values were obtained with the following steps:
Specifically, exponentially growing cells were seeded at a density of 2×10^3 cells/100 μL/well in a 96-well plate and incubated at 37° C. in 5% CO2, 95% air and 100% relative humidity for 24 hours. The test compound was administered alone: 24 hours after cell plating, the compound acted alone, 99 μL of growth medium per well was added, and 1 μL of the compound prepared at 200× was added, and the plate was shaken gently to ensure even mixing, then placed into an incubator of 37° C., 5% CO2. After further cultivation for 72 hours, the number of live cells was detected using CTG. The CTG detection method was as follows: the cell plate to be tested was placed at room temperature to equilibrate for 30 minutes, and 100 μL of medium per well was discarded. 25 μL of CTG reagent (CellTiter-Glo® kit) per well was added, and the plate was placed in a high-speed shaker to oscillate for 2 minutes, and placed at room temperature in the dark for 30 minutes. The chemiluminescence signal value was read using a multimode microplate reader, with a read time of 1000 ms.
Similarly, in order to further verify that the compounds were activated by human AKR1C3 (aldosterone reductase family 1 member C3), the effect of some of the compounds on the proliferation of H460 cancer cells was tested with pretreatment with a specific AKR1C3 enzyme inhibitor AST-3021 (3 μM). The detailed experimental procedure was as follows: 24 hours after cell plating, 98 μL of growth medium per well was added, and 1 μL of 200×compound AST-3021 was added to each well, and the plate was shaken gently to ensure even mixing, and then placed into an incubator; after 2 hours, 1 μL of the test compound prepared at 200× was added, and the plate was shaken gently to ensure even mixing and then laced into an incubator of 37° C., 5% CO2. The inhibitor used was compound 36, i.e.
in Flanagan et al., Bioorganic and Medicinal Chemistry (2014), page 962-977, and is referred to as AST-3021 in this invention. The values measured in this case are values corresponding to +AST-3021 IC50 (nM) in Table 1.
The value corresponding to +AST-3021 IC50 (nM) divided by the value corresponding to IC50 (nM) is the specific activation ratio. The relative magnitude of the specific activation ratio can be used to evaluate whether this compound is a cytotoxic compound activated by human AKR1C3 (aldosterone reductase family 1 member C3): when the specific activation ratio is less than 1, it is considered that the compound is not activated by human AKR1C3 (aldosterone reductase family 1 member C3); when the specific activation ratio is greater than 1, it is considered that the compound is activated by human AKR1C3 (aldosterone reductase family 1 member C3), and the higher the value, the higher the activation degree and the selectivity of AKR1C3.

[9] = Plasma stability in rat plasma; settings: for Remaining percentage (%): rat plasma
Protocol: 1 mM working solution of the test compound was prepared in DMSO. 1 mM working solution of propantheline was prepared in acetonitrile. 1 mM working solution of lovastatin (mevinolin) was prepared in DMSO. Propantheline was used as a positive control for human, monkey, dog, and mouse plasma stability tests. Lovastatin was a positive control for rat plasma stability test.
• A. 398 μL of plasma per well was added to the culture plate, and the plate was preheated at 37° C. for 15 minutes. • B. After preincubation, 2 μL of working solution (test solution or control solution) was added to the 398 μL plasma mentioned above, resulting in a final concentration of 5 μM. The final concentration of organic solvents was 0.5%. The test was conducted in duplicate. • C. The reaction sample was incubated at 37° C. • D. 50 μL was extracted from the reaction sample at 0, 15, 30, 60, and 120 minutes, respectively. […] 100 μL of supernatant was taken and transferred to a new plate. The supernatant was diluted with ultrapure water according to the LC-MS signal response and peak shape.
Samples were analyzed with LC-MS/MS. All calculations were conducted using Microsoft Excel. The peak area ratio was determined from the extracted ion chromatogram. • (1) The percentage of the remaining compound at each time point was calculated with the following formula: […]
wherein the slope value k was determined by linear regression of the natural logarithm of the remaining percentage of the parent drug vs. incubation time curve.

[10] = Group 2, 80 mg/kg i.p. Q3D×4, Day 32
[11] = NCI-H460, compound alone, 72 hours, read-out: IC50
[12] = NCI-H460, pretreatment with AKR1C3 inhibitor AST-3021 (3 μM), read-out: +AST-3021 IC50

Nc1ccn([C@@H]2O[C@H](CO)[C@@H](O)C2(F)F)c(=O)n1 [gemcitabine] gave a Specific activation ratio (H460 cancer cells; H460) of 1.08, an IC50 (H460 cancer cells; NCI-H460, 72 h, H460, 72 hours, read-out: IC50 (nmol/L) AST-3021 not added) of 13.2 nmol/L and an IC50 (H460 cancer cells; NCI-H460, H460, AST-3021 3 μM, read-out: IC50 (nmol/L) AST-3021 added) of 14.2 nmol/L. For the same compound, the “Relative tumor volume (x ± S)” value [1, 10] was 0.06 ± 0.04, the “T/C (%)” value [1, 10] was 0.97% and the “TGI (%)” value [1, 10] was 99.03%. For the same compound, the “complete tumor inhibition rate” value [1, 10] was 60%, the “Tumor volume (x ± S)” value ([1]; Group 2, 80 mg/kg i.p. Q3D×4, Day 32, mean ± standard error) was 6.79 ± 4.33 and the “Tumor volume (mm^3) (x ± S)” value ([1]; day 0) was 102.95 mm^3. For the same compound, the “Tumor volume (mm^3) (x ± S)” value ([1]; day 4) was 104.07 mm^3, the “Tumor volume (mm^3) (x ± S)” value ([1]; day 7) was 74.43 mm^3 and the “Tumor volume (mm^3) (x ± S)” value ([1]; day 11) was 38.92 mm^3. The “Tumor volume (mm^3) (x ± S)” value ([1]; day 14) was 24.66 mm^3, the “Tumor volume (mm^3) (x ± S)” value ([1]; day 18) was 17.66 mm^3 and the “Tumor volume (mm^3) (x ± S)” value ([1]; day 21) was 12.13 mm^3. The “Tumor volume (mm^3) (x ± S)” value ([1]; day 25) was 10.23 mm^3, the “Tumor volume (mm^3) (x ± S)” value ([1]; day 28) was 7.97 mm^3 and the “Tumor volume (mm^3) (x ± S)” value ([1]; day 32) was 6.79 mm^3. The MTD [2] was 120 mg/kg.
For CCN(CCCCBr)P(=O)(OCc1ccc([N+](=O)[O-])c(Oc2ccc(-c3ccccc3)cc2)c1)OCC1OC(n2ccc(N)nc2=O)C(F)(F)C1O (stereo not drawn) [TH3057], the IC50 ([3]; with addition of AKR1C3 enzyme inhibitor) is listed as 5000 nM and the IC50 ([3]; without AKR1C3 enzyme inhibitor) is listed as 200 nM.
For CC(C)[N+](C)(CCOC(=O)C1c2ccccc2Oc2ccccc21)C(C)C [propantheline, reference compound], the “Remaining percentage (%)” value ([4]; 0 min, 5 μM, 37° C.) was 100.00%, the “Remaining percentage (%)” value ([4]; 15 min) was 81.24% and the “Remaining percentage (%)” value ([4]; 30 min) was 59.99%. The “Remaining percentage (%)” value ([4]; 60 min) was 32.76%, the “Remaining percentage (%)” value ([4]; 120 min) was 7.75% and the half-life at 5 µM ([4]; human) was 36.6 min. For the same compound, the “Remaining percentage (%)” value ([5]; 0 min, 5 μM, 37° C.) was 100.00%, the “Remaining percentage (%)” value ([5]; 15 min) was 90.53% and the “Remaining percentage (%)” value ([5]; 30 min) was 77.57%. For the same compound, the “Remaining percentage (%)” value ([5]; 60 min) was 70.39%, the “Remaining percentage (%)” value ([5]; 120 min) was 49.22% and the half-life at 5 µM ([5]; monkey) was 121 min. For the same compound, the half-life at 5 µM [6] was 21.8 min, the “Remaining percentage (%)” value ([6]; 0 min, 5 μM, 37° C.) was 100.00% and the “Remaining percentage (%)” value ([6]; 15 min) was 69.89%. The “Remaining percentage (%)” value ([6]; 30 min) was 43.11%, the “Remaining percentage (%)” value ([6]; 60 min) was 15.28% and the “Remaining percentage (%)” value ([6]; 120 min) was 2.03%. The “Remaining percentage (%)” value ([7]; 0 min, 5 μM, 37° C.) was 100.00%, the “Remaining percentage (%)” value ([7]; 15 min) was 101.04% and the “Remaining percentage (%)” value ([7]; 30 min) was 87.98%. The “Remaining percentage (%)” value ([7]; 60 min) was 85.64%, the “Remaining percentage (%)” value ([7]; 120 min) was 66.64% and the half-life at 5 µM ([7]; dog) was 203 min.
With CCNP(=O)(OCC1OC(n2ccc(N)nc2=O)C(F)(F)C1O)OC(C)c1ccc([N+](=O)[O-])c(Oc2ccc(C(=O)N3CCCCC3)cc2)c1 (stereo not drawn) [Compound H24] the “specific activation ratio (+AST-3021 IC50/IC50)” value [8] was 19.1, the IC50 [8, 11] was 1120 nM and the IC50 [8, 12] was 21400 nM.
In the case of CC(C)CNP(=O)(OCc1ccc([N+](=O)[O-])c(Oc2ccc(C(F)(F)F)cc2)c1)OCC1OC(C2N=CC(N)=NC2=O)C(F)(F)C1O (stereo not drawn) [Compound H10], the “specific activation ratio (+AST-3021 IC50/IC50)” value [8] is reported as 27.7, the IC50 [8, 11] is reported as 105 nM and the IC50 [8, 12] is reported as 2900 nM.
In the case of CCNP(=O)(OCc1ccc([N+](=O)[O-])c(Oc2ccc(C(=O)N3CCC(C(F)(F)F)CC3)cc2)c1)OCC1OC(n2ccc(N)nc2=O)C(F)(F)C1O (stereo not drawn) [Compound H14], the “specific activation ratio (+AST-3021 IC50/IC50)” value [8] is reported as 1.9, the IC50 [8, 11] is reported as 1770 nM and the IC50 [8, 12] is reported as 3300 nM.
With CC(C)NP(=O)(OCc1ccc([N+](=O)[O-])c(Oc2ccc(-c3ccc(Cl)cc3)cc2)c1)OCC1OC(n2ccc(N)nc2=O)C(F)(F)C1O (stereo not drawn) [Compound H40] the “specific activation ratio (+AST-3021 IC50/IC50)” value [8] was 86.9, the IC50 [8, 11] was 194 nM and the IC50 [8, 12] was 16900 nM.
In the case of CC(C)CNP(=O)(OCc1ccc([N+](=O)[O-])c(Oc2ccc(-c3ccc(F)cc3)c(F)c2)c1)OCC1OC(C2N=CC(N)=NC2=O)C(F)(F)C1O (stereo not drawn) [Compound H7], the “specific activation ratio (+AST-3021 IC50/IC50)” value [8] is reported as 61.3, the IC50 [8, 11] is reported as 26.8 nM and the IC50 [8, 12] is reported as 1640 nM.
For CC[C@H](C)C(=O)O[C@H]1C[C@@H](C)C=C2C=C[C@H](C)[C@H](CC[C@@H]3C[C@@H](O)CC(=O)O3)[C@H]21 [lovastatin, reference compound], the “Remaining percentage (%)” value ([9]; 0 min, 5 μM, 37° C.) was 100.00%, the “Remaining percentage (%)” value ([9]; 15 min) was 5.27% and the “Remaining percentage (%)” value ([9]; 30 min) was 0.52%. The “Remaining percentage (%)” value ([9]; 60 min) was 0.45%, the “Remaining percentage (%)” value ([9]; 120 min) was 0.34% and the “t1/2” value ([9]; rat, plasma) was 3.53 min.
